Assay results published in ChEMBL document CHEMBL5108048, “Potent GCN2 Inhibitor Capable of Reversing MDSC-Driven T Cell Suppression Demonstrates In Vivo Efficacy as a Single Agent and in Combination with Anti-Angiogenesis Therapy” (J Med Chem, 2022).

Experiments:
eIF-2-alpha kinase GCN2 [1] = target: T1, eIF-2-alpha kinase GCN2 (Homo sapiens, UniProt Q9P2K8); assay: Inhibition of GCN2 (unknown origin)
eIF-2-alpha kinase GCN2 [2] = target: T1, eIF-2-alpha kinase GCN2; assay: Inhibition of GCN2 in human SK-OV-3 cells assessed as reduction in phosphorylation of eIF2alpha by cellular assay; type: cell-based
[3] = […] in Sprague-Dawley rat […] assessed as half life at 0.5 mg/kg,iv; type: ADME, organism-based
[4] = AUC (0-infinity) in Sprague-Dawley rat at 2 mg/kg,po; type: ADME, organism-based; set-up: time infinity, dose 2 mg/kg, route po; conditions: in vivo
[5] = Oral bioavailability in Sprague-Dawley rat at 2 mg/kg; type: ADME, organism-based; conditions: in vivo

T1 sequence (Q9P2K8 whole entry): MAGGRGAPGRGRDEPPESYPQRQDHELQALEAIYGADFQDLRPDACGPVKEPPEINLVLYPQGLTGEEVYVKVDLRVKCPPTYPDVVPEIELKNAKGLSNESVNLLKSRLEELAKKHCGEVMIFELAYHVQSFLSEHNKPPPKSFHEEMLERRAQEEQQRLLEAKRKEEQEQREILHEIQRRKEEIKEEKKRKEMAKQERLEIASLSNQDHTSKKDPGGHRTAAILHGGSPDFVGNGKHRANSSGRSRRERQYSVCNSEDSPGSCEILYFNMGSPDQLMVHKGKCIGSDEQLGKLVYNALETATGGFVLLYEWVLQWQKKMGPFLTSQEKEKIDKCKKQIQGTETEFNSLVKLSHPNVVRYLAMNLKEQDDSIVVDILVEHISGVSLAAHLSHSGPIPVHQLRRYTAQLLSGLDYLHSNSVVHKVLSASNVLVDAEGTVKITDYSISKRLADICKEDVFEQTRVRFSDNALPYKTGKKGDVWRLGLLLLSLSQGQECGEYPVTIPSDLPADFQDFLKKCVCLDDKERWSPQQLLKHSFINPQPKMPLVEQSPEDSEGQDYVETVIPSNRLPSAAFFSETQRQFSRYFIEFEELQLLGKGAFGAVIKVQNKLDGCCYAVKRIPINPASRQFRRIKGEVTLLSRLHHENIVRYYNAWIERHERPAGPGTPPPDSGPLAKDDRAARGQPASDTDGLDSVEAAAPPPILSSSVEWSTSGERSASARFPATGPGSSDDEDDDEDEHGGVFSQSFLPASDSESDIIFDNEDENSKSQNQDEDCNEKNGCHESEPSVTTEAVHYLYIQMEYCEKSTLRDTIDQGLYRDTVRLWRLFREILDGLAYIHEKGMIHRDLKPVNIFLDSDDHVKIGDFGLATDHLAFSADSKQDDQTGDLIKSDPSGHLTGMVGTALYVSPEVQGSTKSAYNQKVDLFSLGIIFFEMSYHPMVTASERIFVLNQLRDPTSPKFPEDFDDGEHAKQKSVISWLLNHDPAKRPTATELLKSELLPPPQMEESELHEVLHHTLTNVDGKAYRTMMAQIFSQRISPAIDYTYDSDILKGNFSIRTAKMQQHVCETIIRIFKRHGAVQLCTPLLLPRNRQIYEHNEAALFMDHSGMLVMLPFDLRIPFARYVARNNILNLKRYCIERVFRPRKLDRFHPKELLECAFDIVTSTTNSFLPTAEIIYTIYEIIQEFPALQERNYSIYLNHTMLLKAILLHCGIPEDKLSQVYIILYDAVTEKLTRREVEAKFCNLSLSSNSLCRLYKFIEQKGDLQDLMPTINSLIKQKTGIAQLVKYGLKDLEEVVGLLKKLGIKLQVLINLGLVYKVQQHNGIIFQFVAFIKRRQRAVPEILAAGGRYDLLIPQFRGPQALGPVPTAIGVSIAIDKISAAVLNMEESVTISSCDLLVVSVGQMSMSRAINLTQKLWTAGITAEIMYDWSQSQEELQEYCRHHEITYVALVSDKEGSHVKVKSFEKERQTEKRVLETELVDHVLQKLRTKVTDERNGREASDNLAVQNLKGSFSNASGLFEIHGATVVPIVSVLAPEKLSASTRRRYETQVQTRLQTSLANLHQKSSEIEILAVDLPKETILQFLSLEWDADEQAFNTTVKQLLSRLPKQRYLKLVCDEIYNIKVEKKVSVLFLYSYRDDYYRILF

Row | Compound | IC50 (eIF-2-alpha kinase GCN2 [1]) [nM] | IC50 (eIF-2-alpha kinase GCN2 [2]) [nM] | other results
1 | COCCC(=O)N[C@@H]1CC[C@@H](Nc2ncc3c(Br)nn(-c4ccc5ncccc5c4)c3n2)C1 | 74 | 159 | 
2 | CCn1cc(Nc2ncc3c(C)nn(-c4ccc5ncccc5c4)c3n2)cn1 | 23 |  | 
3 | CCn1cc(Nc2ncc3cccc(Nc4ccc(OC)cc4)c3n2)cn1 | > 1000 |  | 
4 | CCn1cc(Nc2ncc3ccn(-c4ccc(OC)cc4)c3n2)cn1 | 405 |  | 
5 | CNS(=O)(=O)[C@@H]1CC[C@@H](Nc2ncc3c(Br)nn(-c4ccc5ncccc5c4)c3n2)C1 | 43 | 106 | 
6 | COCCNC(=O)[C@@H]1CC[C@H](Nc2ncc3c(Br)nn(-c4ccc5ncccc5c4)c3n2)C1 | 923 |  | 
7 | COCCNC(=O)[C@H]1CC[C@H](Nc2ncc3c(Br)nn(-c4ccc5ncccc5c4)c3n2)C1 | 144 | 183 | 
8 | CNC(=O)[C@]1(C)CC[C@@H](Nc2ncc3c(Br)nn(-c4ccc(-c5cnc(C)s5)cc4)c3n2)C1 | 27 |  | 
9 | FC(F)(F)c1nn(-c2ccc3ncccc3c2)c2nc(Nc3cnn(C4CCNCC4)c3)ncc12 | 168 |  | 
10 | CNC(=O)[C@]1(C)CC[C@@H](Nc2ncc3c(Br)nn(-c4ccc(-c5nnc(C)s5)c(S(C)(=O)=O)c4)c3n2)C1 | 61 |  | 
11 | CNC(=O)[C@]1(C)CC[C@@H](Nc2ncc3c(Br)nn(-c4ccc(-c5ncc(C)s5)cc4)c3n2)C1 | 76 |  | 
12 | COCCNC(=O)[C@H]1CC[C@@H](Nc2ncc3c(Br)nn(-c4ccc5ncccc5c4)c3n2)CC1 | 211 | 763 | 
13 | COCCS(=O)(=O)N[C@@H]1CC[C@@H](Nc2ncc3c(Br)nn(-c4ccc5ncccc5c4)c3n2)C1 (relative stereo) | 55 | 262 | 
14 | CNC(=O)[C@]1(C)CC[C@@H](Nc2ncc3c(Br)nn(-c4ccc(-c5nnc(C)s5)c(CCO)c4)c3n2)C1 | 16 | 25 | half-life [3]: 47 min; AUC(0-inf) [4]: 518 ng·h/mL; bioavailability [5]: 15%
15 | CNC(=O)[C@]1(C)CC[C@@H](Nc2ncc3c(Br)nn(-c4ccc(-c5nnc(C)s5)c(CCC#N)c4)c3n2)C1 | 10 | 29 | half-life [3]: 13 min; AUC(0-inf) [4]: 1900 ng·h/mL; bioavailability [5]: 42%
16 | COCCNC(=O)CCNc1ncc2c(Br)nn(-c3ccc4ncccc4c3)c2n1 | > 1000 |  | 
17 | COCCNC(=O)[C@H]1C[C@H](Nc2ncc3c(Br)nn(-c4ccc5ncccc5c4)c3n2)C1 | 40 | 86 | 
18 | COCc1noc([C@@H]2CC[C@@H](Nc3ncc4c(Br)nn(-c5ccc6ncccc6c5)c4n3)C2)n1 | 106 |  | 
19 | CCn1cc(Nc2ncc3c(C)nn(-c4ccc(C#N)cc4)c3n2)cn1 | 56 |  | 
20 | CNC(=O)[C@]1(C)CC[C@@H](Nc2ncc3c(Br)nn(-c4ccc5ncccc5c4)c3n2)C1 | 17 | 21 | 
21 | COCCNC(=O)[C@H]1CC[C@@H](Nc2ncc3c(Br)nn(-c4ccc5ncccc5c4)c3n2)C1 | 61 | 156 | 
22 | CCn1cc(Nc2ncc3cnn(-c4ccc(OC)cc4)c3n2)cn1 | 133 |  | 
23 | CNC(=O)[C@]1(C)CC[C@@H](Nc2ncc3c(Br)nn(-c4ccc(-c5nnc(C)s5)c(F)c4)c3n2)C1 | 8 | 33 | 

Row | Compound | IC50 (eIF-2-alpha kinase GCN2 [1]) [nM] | IC50 (eIF-2-alpha kinase GCN2 [2]) [nM] | other results
24 | Clc1nn(-c2ccc3ncccc3c2)c2nc(Nc3cnn(C4CCNCC4)c3)ncc12 | 5 |  | 
25 | CNC(=O)[C@]1(C)CC[C@@H](Nc2ncc3c(Br)nn(-c4ccc(-c5nnc(C)s5)c(CCN)c4)c3n2)C1 | 15 | 240 | 
26 | CCn1cc(Nc2ncc3cccc(-c4ccc(OC)cc4)c3n2)cn1 | > 1000 |  | 
27 | CCn1cc(Nc2ncc3c(C)nn(-c4ccc(OC)cc4)c3n2)cn1 | 81 |  | 
28 | Brc1nn(-c2ccc3ncccc3c2)c2nc(N[C@@H]3CC[C@@H](c4ncc[nH]4)C3)ncc12 (relative stereo) | 21 | 545 | 
29 | COCCNC(=O)CNc1ncc2c(Br)nn(-c3ccc4ncccc4c3)c2n1 | > 1000 |  | 
30 | CNC(=O)[C@]1(C)CC[C@@H](Nc2ncc3c(Br)nn(-c4ccc(-c5nnc(C)s5)cc4F)c3n2)C1 | 359 |  | 
31 | CNC(=O)[C@]1(C)CC[C@@H](Nc2ncc3c(Br)nn(-c4ccc(-c5nnc(C)s5)c(CCS(C)(=O)=O)c4)c3n2)C1 | 2 | 9 | half-life [3]: 39 min; AUC(0-inf) [4]: 26 ng·h/mL; bioavailability [5]: 3%
32 | Cc1nn(-c2ccc3ncccc3c2)c2nc(Nc3cnn(C4CCNCC4)c3)ncc12 | 11 |  | 
33 | CCn1cc(Nc2ccn3ncc(-c4ccc(OC)cc4)c3n2)cn1 | > 1000 |  | 
34 | Brc1nn(-c2ccc3ncccc3c2)c2nc(Nc3cnn(C4CCNCC4)c3)ncc12 | 3 | 610 | 
35 | CNC(=O)[C@]1(C)CC[C@@H](Nc2ncc3c(Br)nn(-c4ccc(-c5nnc(C)o5)cc4)c3n2)C1 | 16 | 16 | 
36 | CNC(=O)[C@]1(C)CC[C@@H](Nc2ncc3c(Br)nn(-c4ccc(-c5nnc(C)s5)c(C#N)c4)c3n2)C1 | 8 | 35 | half-life [3]: 51 min; AUC(0-inf) [4]: 1150 ng·h/mL; bioavailability [5]: 39%
37 | CNC(=O)[C@]1(C)CC[C@@H](Nc2ncc3c(Br)nn(-c4ccc(-c5nnc(C)s5)c(CS(C)(=O)=O)c4)c3n2)C1 | 211 |  | 
38 | CNC(=O)[C@]1(C)CC[C@@H](Nc2ncc3c(Br)nn(-c4ccc(-c5nnc(C)s5)c(CCN(C)C)c4)c3n2)C1 | 29 |  | 
39 | CS(=O)(=O)N1CC[C@@H](Nc2ncc3c(Br)nn(-c4ccc5ncccc5c4)c3n2)C1 | 90 | 378 | 
40 | CNC(=O)[C@]1(C)CC[C@@H](Nc2ncc3c(Br)nn(-c4ccc(-c5nnc(C)s5)c(CC#N)c4)c3n2)C1 | 78 |  | 
41 | COCCNC(=O)[C@@H]1CC[C@@H](Nc2ncc3c(Br)nn(-c4ccc5ncccc5c4)c3n2)C1 | 5 | 20 | 
42 | CNC(=O)[C@@H]1CC[C@@H](Nc2ncc3c(Br)nn(-c4ccc5ncccc5c4)c3n2)C1 | 21 | 25 | 
43 | CNC(=O)[C@]1(C)CC[C@@H](Nc2ncc3c(Br)nn(-c4ccc(-c5nnc(C)s5)c(CNS(C)(=O)=O)c4)c3n2)C1 | 109 |  | 
44 | CNC(=O)[C@]1(C)CC[C@@H](Nc2ncc3c(Br)nn(-c4ccc(-c5nnc(C)s5)c(CO)c4)c3n2)C1 | 91 |  | 
45 | COCCNC(=O)[C@H]1CC[C@H](Nc2ncc3c(Br)nn(-c4ccc5ncccc5c4)c3n2)CC1 | 159 | 628 | 
